In publication PMC12505664, “Enflicoxib for the long-term management of canine osteoarthritis—External validation of a population pharmacokinetic model in dogs with osteoarthritis” (Frontiers in Veterinary Science, 2025):
Where two headings read alike, the source gives them in different places.

Experiments:
[1] = Maximum a posteriori Bayesian (MAPB) estimation of individual PK parameters in dogs with OA; type: in vivo
From the text: As a similar PK behavior between populations was concluded, the same popPK model could be used, and a Bayesian approach was used for the determination of individual enflicoxib and the pyrazol metabolite exposure in osteoarthritic animals.
A maximum a posteriori Bayesian (MAPB) estimation using the post hoc subroutine in NONMEM was used to provide the individual PK parameters in osteoarthritic dogs.
MAPB estimation applied likelihood maximization in the form of minimizing the objective function (minus 2 log likelihood), to estimate individual PK parameters of each dog with OA. In this analysis, the MAPB estimation incorporated both a priori PK information, that is, the established PK model of enflicoxib and the pyrazol metabolite in healthy Beagle dogs, and a posteriori PK data, which corresponds to PK data from osteoarthritic dogs. The individual PK parameters along with individual predicted PK profiles for each dog treated with enflicoxib were calculated by fitting the animal PK dataset, which includes dosing, sampling times, parent and metabolite levels, and covariate information, to the established population enflicoxib and the pyrazol metabolite PK model in healthy Beagle dogs.
The maximum a posteriori Bayesian (MAPB) estimation was applied to provide the most likely individual PK profile for each dog with OA, using the “POSTHOC” subroutine and $ESTIMATION command set to MAXEVAL=0 in NONMEM.
Individual PK parameters and individual PK profiles of enflicoxib and the pyrazol metabolite were estimated for each dog.
Finally, the Bayesian approach enabled the estimation of the main individual PK parameters of enflicoxib and the pyrazol metabolite. Using these individual PK parameters, predicted profiles for each animal were estimated, allowing the calculation of the derived exposure parameters, such as Cmax, Cmin, AUCτ, and T1/2 in all treated dogs. The distribution and the mean estimates of enflicoxib and the pyrazol metabolite PK parameters at selected time points are depicted in Supplementary Figures S3, S4, respectively.

dogs with OA = experiment: Safety assessment in the field clinical study (hematology, biochemistry, urine, adverse events); type: in vivo, client-owned dogs with OA; conditions: 6 months weekly treatment
Experimental: To assess safety, blood samples for hematology and biochemistry, as well as urine samples, were repeated on days 44 and 189. The following hematological and biochemical parameters were determined: red blood cell (RBC) count, white blood cell (WBC) total and differential count, platelet (thrombocyte) count and estimate, hematocrit, hemoglobin, and reticulocytes. Amylase, albumin, alkaline phosphatase, alanine-aminotransferase (ALT), aspartate-aminotransferase (AST), calcium, cholesterol, creatinine, creatine kinase, globulin, glucose, γ-Glutamyltransferase (γ-GT), magnesium, phosphorus, potassium, sodium, total bilirubin, total protein, and urea.
Urine samples were analyzed for blood/erythrocytes/hemoglobin, glucose, ketone bodies, protein, leukocytes, nitrite, specific weight, pH value, bilirubin, and urobilinogen.
Safety was also assessed by recording any adverse events (AEs) that occurred during the study, regardless of their nature, severity, or whether they were product-related or not.

[2] = design: method as in PMID 34854245; conditions: popPK model, cited from earlier work
[3] = design: method as in PMID 34160092; conditions: cited from earlier work
[4] = design: method as in PMID 34160092; conditions: previously validated method, cited from earlier work
canine osteoarthritis = tested on: canine osteoarthritis; design: method as in Salichs et al., Vet Rec. 2022; conditions: ref Salichs et al., Vet Rec. 2022, cited from earlier work; for Number of animals presenting AEs (%): Emesis or nausea: AEs classified A, B or O; for Emesis and nausea: Number of events: AEs related to the GI system
[5] = overdose study, repeated weekly administrations, Beagle dogs; cited from earlier work
[6] = mean across weeks, Bayesian predicted profiles
[7] = interindividual variability as % CV
[8] = parent, typical value at 9.9 kg

## NS(=O)(=O)c1ccc(N2N=C(C(F)(F)F)CC2c2ccc(F)cc2F)cc1 (stereo not drawn) [Enflicoxib]
[1]; 6 months of weekly treatment
  Time-dependent pharmacokinetics or over-accumulation: no evidence of time-dependent pharmacokinetics or over-accumulation
[1]; [6]
  AUCτ: 3,810 ng/mL·d
  Cmin: ~ 185 ng/mL
[1]; mean, all weeks of weekly treatment, Bayesian predicted profiles
  Cmax: ≈ 1,173 ng/mL
[1]; weekly treatment
  Time to PK steady-state: 4 weeks
Dogs with OA
  Incidence and type of adverse events over time: no tendency to increase over time
Dogs with OA; days 44 and 189
  Hematological and biochemical parameters: generally within the reference ranges
[2]; [7]
  IIV of CL2/F (apparent clearance of irreversible biotransformation to pyrazol metabolite): 49%
  IIV of Lag Time (Tlag): 68%
  IIV of V/F (apparent volume of distribution in the central compartment): 94%
  IIV of absorption rate (ka): 101%
[2]; log error model, % CV
  Residual variability: 34%
[2]; parent
  Absorption rate (ka), estimate: 0.220 hr – 1
  Lag Time (Tlag), estimate: 0.249 h
[2]; [8]
  CL1/F = θ5·(WGT/9.9)^0.75, θ5 estimate (apparent clearance to other elimination pathways): 0.193 L/h
  CL2/F = θ6·(WGT/9.9)^0.75, θ6 estimate (apparent clearance of irreversible biotransformation to pyrazol metabolite): 0.520 L/h
  V/F = θ4·(WGT/9.9)^1.0, θ4 estimate (apparent volume of distribution, central compartment): 6.59 L
[3]; Beagle dogs, oral
  mean terminal elimination half-life (t 1/2): 20 h
[3]
  Effect of food on absorption: food increases absorption
[4]; following 4 freeze–thaw cycles
  Stability in dog plasma: stable
[4]; nominally −20 °C for 402 days
  Stability in dog plasma: stable
[4]; room temperature for 4 h
  Stability in dog plasma: stable
[4]; stored at −20 °C
  Long-term stability in dog plasma samples: ≥ 402 days
Canine osteoarthritis; Enflicoxib 2 mg/kg group n=60
  Number of animals presenting AEs (%): Emesis or nausea: 3 (5.0)
  Emesis and nausea: Number of events: 3
  Diarrhoea / pasty stools: Duration range: 2 to 8 days
  Diarrhoea / pasty stools: Mean duration: 5.6 days
  Diarrhoea / pasty stools: Number of events: 3
  Diarrhoea / pasty stools: Treatment needed: 1
  Emesis and nausea: Mean duration: 3 days
  Emesis and nausea: Treatment needed: 0
  Number of animals presenting AEs (%): Abdominal pain: 0
  Number of animals presenting AEs (%): Acute renal failure: 0
  Number of animals presenting AEs (%): Apathy: 1 (1.7)
  Number of animals presenting AEs (%): Constipation: 0
  Number of animals presenting AEs (%): Diarrhoea or pasty stools: 4 (6.7)
  Number of animals presenting AEs (%): Increased salivation: 0
  Number of animals presenting AEs (%): Polydipsia: 0
  Number of animals presenting AEs (%): Total: 6 (10%)
  Number of animals presenting AEs (%): Weight loss: 1 (1.7)
Canine osteoarthritis; Enflicoxib 2 mg/kg group n=60, upper end one animal
  Emesis and nausea: Duration range: 1 to 6 days
Canine osteoarthritis; Enflicoxib 4 mg/kg group n=61
  Number of animals presenting AEs (%): Emesis or nausea: 7 (11.5)
  Emesis and nausea: Number of events: 9
  Diarrhoea / pasty stools: Duration range: 1 to 4 days
  Diarrhoea / pasty stools: Mean duration: 3 days
  Diarrhoea / pasty stools: Number of events: 7
  Diarrhoea / pasty stools: Treatment needed: 3
  Emesis and nausea: Duration range: 1 to 3 days
  Emesis and nausea: Mean duration: 1.4 days
  Emesis and nausea: Treatment needed: 2
  Number of animals presenting AEs (%): Abdominal pain: 0
  Number of animals presenting AEs (%): Acute renal failure: 0
  Number of animals presenting AEs (%): Apathy: 2 (3.3)
  Number of animals presenting AEs (%): Constipation: 0
  Number of animals presenting AEs (%): Diarrhoea or pasty stools: 5 (8.2)
  Number of animals presenting AEs (%): Increased salivation: 1 (1.6)
  Number of animals presenting AEs (%): Polydipsia: 1 (1.6)
  Number of animals presenting AEs (%): Total: 12 (19.7)
  Number of animals presenting AEs (%): Weight loss: 0
[5]
  Dose proportionality of pharmacokinetics: dose-proportional pharmacokinetics
